{
  "source": "patent US10696661B2",
  "about": "“Compounds” (Exonate Limited, priority 2015, dated 2020)",
  "molecules": {"B1": {"name": "Lucentis: a novel humanized anti-VEGF antibody fragment (antibody, chains of the INN, looked up, V domains shown)", "VH": "EVQLVESGGGLVQPGGSLRLSCAASGYDFTHYGMNWVRQAPGKGLEWVGWINTYTGEPTYAADFKRRFTFSLDTSKSTAYLQMNSLRAEDTAVYYCAKYPYYYGTSHWYFDVWGQGTLVTVSS", "VL": "DIQLTQSPSSLSASVGDRVTITCSASQDISNYLNWYQQKPGKAPKVLIYFTSSLHSGVPSRFSGSGSGTDFTLTISSLQPEDFATYYCQQYSTVPWTFGQGTKVEIK", "modifications": "Fab", "notes": "a novel humanized anti-VEGF antibody fragment"}},
  "key": {"[1]": {"system": "VEGF-A165a / VEGF-A165b mRNA in primary RPE cells and ARPE-19 cells", "test": "qRT-PCR and conventional PCR of VEGF-A alternative splicing", "format": "cell-based, human", "details": "FIGS. 8 and 9", "excerpt": "Primary human retinal epithelial cells were lysed in Trizol reagent and mRNA was extracted using the method of Chomczynski and Sacchi, or using an RNeasy RNA extraction kit (Qiagen, UK). mRNA was reverse transcribed using Thermoscript reverse transcriptase (Fisher Scientific, UK). The cDNA was amplified using primers designed to amplify the region spanning the proximal and distal splice sites in human VEGF-A165a and VEGF-A165b, to amplify both isoforms and differentiate between them due to the fact that the exon 8b-containing isoform is 66-bp shorter than the exon 8a-containing isoform. The primers used were; 5′-[…]-3′ (SEQ ID NO:2) and 5′-[…]-3′ (SEQ ID NO:3) with the following conditions; 96° C. for 2 min followed by 45 cycles at 96° C.-30 s, 60° C.-30 s and 72° C.-30 s. The PCR mix consisted of DNA: 200 ng, MgCl2 0.25 mM, Primer each […], Taq polymerase 1 unit and dH2O up to 25 μl. Control plasmid concentration: VEGF165a 500 ng and VEGF165b 1 μg. PCR products were run on 3% agarose gels containing 0.5 μg/ml ethidium bromide.\nRNA was isolated and reverse transcribed as described above. Quantitative PCR (qPCR) was performed with a LightCycler 480 (Roche) q-PCR machine. The qPCR mix included PCR-grade dH2O 3 PCR Primer (1 μM) 2 μl. […]\nVEGF-A alternative splicing was further measured in retinal pigmented epithelial cells by qRT-PCR and conventional PCR."}, "[2]": {"system": "VEGF165b and VEGF165 protein in retinal pigmented epithelial cells", "test": "VEGF isoform specific ELISA in retinal pigmented epithelial cells", "format": "cell-based, human", "details": "relative to DMSO control, FIG. 3", "method": "96-well clear microplate (high sensitivity thermo immulon or costar 9018) were coated with 100 μL of 10 μg/ml VEGFxxxb or 0.25 μg/ml anti-hVEGF165a per well. The plate was sealed with parafilm and incubated overnight on the shaker at room temp. Each well was aspirated and washed with Wash Buffer (200 μl PBS-Tween 0.05%), two times for a total of three washes. After the last wash, remaining Wash Buffer was removed by inverting the plate and blotting it against clean paper towels. Plates were blocked by adding 100 μl of Reagent Diluent (1% BSA/PBS) to each well and incubated at room temp on a shaker for 2 hours. The aspiration/wash step was repeated. 100 μL of standards or samples in 1% BSA/PBS were added to each well, covered with parafilm and incubated 2 hours at room temperature. The aspiration/wash was repeated and 100 μL of 100 ng/ml Detection Antibody (BAF293), diluted in Reagent Diluent, was added to each well which were covered with parafilm and incubated 2 hours at room temp. The aspiration/wash was repeated and 100 μL of the working dilution of Streptavidin-HRP (1:200 dilution) was added to each well. […] The optical density of each well was measured immediately, using a microplate reader set to 450 nm.\nTo determine whether these compounds could switch splicing of VEGF isoforms, VEGF was measured in retinal pigmented epithelial cells by isoform specific ELISA."}, "[3]": {"system": "laser-induced choroidal neovascularisation (CNV)", "test": "Laser-induced choroidal neovascularisation (CNV) in mice, topical eye drops", "format": "in vivo", "details": "mouse, eye drop, FIG. 4-7", "method": "6-8 week-old female C57/B6 mice were anesthetized with an intraperitoneal injection of a mixture of 50 mg/kg ketamine and 0.5 mg/kg medetomidine. The pupils were immediately dilated by topical (eyedrop) application with a dilator such as 5% phenylephrine hydrochloride and 1% tropicamide. Four photocoagulation lesions were delivered with a green Merilas 532a laser (450 mW, 130 ms) between the “large” retinal vessels in clear space with no vessels in a peripapillary distribution at a distance of 1-2 disc-diameters in each eye. Only clean laser lesions with a subretinal bubble at the time of treatment were included in the study. Immediately following laser photocoagulation the animals were given topical eye drops of candidate compounds twice daily (10 μl, eyes held for 30 seconds to prevent animal wiping drop away).\nAfter one week, mice were anesthetized with an intraperitoneal injection of a mixture of 50 mg/kg ketamine and 0.5 mg/kg medetomidine. The pupils were immediately dilated by topical (eyedrop) application with a dilator such as 5% phenylephrine hydrochloride and 1% tropicamide. Mice were administered an intraperitoneal injection of sodium fluorescein (10%). Phase contrast and green fluorescent fundus images were taken with an angiography microscope and camera with each lesion in focus. […]"}, "VEGF165b and VEGF165": {"system": "VEGF165b and VEGF165", "details": "cited from earlier work"}, "neovascular AMD": {"system": "neovascular AMD", "details": "treated monthly, 0.5 mg, at one year; cited from earlier work"}},
  "data": [
    {"molecule": "O=C(Nc1cc(C(F)(F)F)ccc1N1CCN(Cc2cc[nH]n2)CC1)c1ccc(C2CCOCC2)o1", "note": "[Compound 14, N-(2-(4-((1H-pyrazol-3-yl)methyl)piperazin-1-yl)-5-(trifluoromethyl)-phenyl)-5-(tetrahydro-2H-pyran-4-yl)furan-2-carboxamide]", "values": [
      {"measurement": "VEGF-A165a/VEGF165b mRNA isoform expression", "setting": "[1]; endothelial cells (figure legend)", "value": "decrease"},
      {"measurement": "levels of VEGF165b relative to VEGF165 RNA", "setting": "[1]; primary RPE cells and ARPE-19 cells", "value": "switched the levels of VEGF165b relative to VEGF165 RNA by a decrease in VEGF165"}
    ]},
    {"molecule": "O=C(Nc1cc(C(F)(F)F)ccc1N1CCN(Cc2cocn2)CC1)c1ccc(-c2ccncc2)o1", "note": "[Compound 17, N-(2-(4-(oxazol-4-ylmethyl)piperazin-1-yl)-5-(trifluoromethyl)phenyl)-5-(pyridin-4-yl)furan-2-carboxamide]", "values": [
      {"measurement": "VEGF165b protein", "setting": "[2]", "value": "increase in VEGF165b"},
      {"measurement": "VEGF165 protein", "setting": "[2]", "value": "not VEGF165 protein"},
      {"measurement": "anti-angiogenic activity on lesion size / efficacy compared with reference compound", "setting": "[3]; listed as N-(2-(4-(oxazol-4-ylmethyl)piperazin-1-yl)-5-(trifluoromethyl)phenyl)-5-(pyridin)", "value": "same efficacy"},
      {"measurement": "anti-angiogenic activity on lesion size / efficacy compared with reference compound", "setting": "[3]; listed as compound 17", "value": "same anti-angiogenic activity on lesion size and the same efficacy as reference compounds"}
    ]},
    {"molecule": "bevicizumab (Avastin): an anti-VEGF antibody from which Lucentis was derived", "values": [
      {"measurement": "binding potency to VEGF165b versus VEGF165", "setting": "VEGF165b and VEGF165", "value": "equal potency"}
    ]},
    {"molecule": "B1", "values": [
      {"measurement": "patients who maintained visual acuity (loss of <15 letters)", "setting": "neovascular AMD", "value": "approximately 95%"},
      {"measurement": "patients with improved vision (gain of ≥15 letters)", "setting": "neovascular AMD", "value": "≤ 40", "unit": "%"}
    ]}
  ]
}
